The values that follow come from article PMC11945486, “TAS1R2/TAS1R3 Single-Nucleotide Polymorphisms Affect Sweet Taste Receptor Activation by Sweeteners: The SWEET Project” (Nutrients, 2025).

No end group written: not given here.

For this assay, the target named is T1, human TAS1R2-R317P/TAS1R3-WT (Homo sapiens, UniProt Q7RTX0+Q8TE23, R317P).
T1 construct: expressed in transfected cells; host or cells: HEK293T-Gα16gust44
T1 sequence (Q8TE23 20-839 R317P): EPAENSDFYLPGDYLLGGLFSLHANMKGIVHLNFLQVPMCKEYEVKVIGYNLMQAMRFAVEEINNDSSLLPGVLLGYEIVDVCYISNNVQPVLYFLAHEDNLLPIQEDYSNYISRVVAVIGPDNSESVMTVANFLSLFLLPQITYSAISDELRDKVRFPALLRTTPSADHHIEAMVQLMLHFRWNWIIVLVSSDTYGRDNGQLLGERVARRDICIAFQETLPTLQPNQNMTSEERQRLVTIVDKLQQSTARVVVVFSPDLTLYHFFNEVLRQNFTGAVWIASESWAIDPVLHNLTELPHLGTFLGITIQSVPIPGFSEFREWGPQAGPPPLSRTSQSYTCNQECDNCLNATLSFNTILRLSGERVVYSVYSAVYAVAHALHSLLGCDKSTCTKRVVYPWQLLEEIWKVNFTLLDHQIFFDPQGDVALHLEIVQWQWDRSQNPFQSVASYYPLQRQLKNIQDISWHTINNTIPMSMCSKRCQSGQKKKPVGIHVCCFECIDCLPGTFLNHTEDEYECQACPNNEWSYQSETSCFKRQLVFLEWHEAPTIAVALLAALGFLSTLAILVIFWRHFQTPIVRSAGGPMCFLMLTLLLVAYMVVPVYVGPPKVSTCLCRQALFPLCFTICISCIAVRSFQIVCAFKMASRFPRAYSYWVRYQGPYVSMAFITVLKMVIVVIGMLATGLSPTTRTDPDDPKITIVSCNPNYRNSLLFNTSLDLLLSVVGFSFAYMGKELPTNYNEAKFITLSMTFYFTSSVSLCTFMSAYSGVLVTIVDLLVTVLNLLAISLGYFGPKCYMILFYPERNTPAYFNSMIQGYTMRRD
T1 sequence (Q7RTX0 21-852): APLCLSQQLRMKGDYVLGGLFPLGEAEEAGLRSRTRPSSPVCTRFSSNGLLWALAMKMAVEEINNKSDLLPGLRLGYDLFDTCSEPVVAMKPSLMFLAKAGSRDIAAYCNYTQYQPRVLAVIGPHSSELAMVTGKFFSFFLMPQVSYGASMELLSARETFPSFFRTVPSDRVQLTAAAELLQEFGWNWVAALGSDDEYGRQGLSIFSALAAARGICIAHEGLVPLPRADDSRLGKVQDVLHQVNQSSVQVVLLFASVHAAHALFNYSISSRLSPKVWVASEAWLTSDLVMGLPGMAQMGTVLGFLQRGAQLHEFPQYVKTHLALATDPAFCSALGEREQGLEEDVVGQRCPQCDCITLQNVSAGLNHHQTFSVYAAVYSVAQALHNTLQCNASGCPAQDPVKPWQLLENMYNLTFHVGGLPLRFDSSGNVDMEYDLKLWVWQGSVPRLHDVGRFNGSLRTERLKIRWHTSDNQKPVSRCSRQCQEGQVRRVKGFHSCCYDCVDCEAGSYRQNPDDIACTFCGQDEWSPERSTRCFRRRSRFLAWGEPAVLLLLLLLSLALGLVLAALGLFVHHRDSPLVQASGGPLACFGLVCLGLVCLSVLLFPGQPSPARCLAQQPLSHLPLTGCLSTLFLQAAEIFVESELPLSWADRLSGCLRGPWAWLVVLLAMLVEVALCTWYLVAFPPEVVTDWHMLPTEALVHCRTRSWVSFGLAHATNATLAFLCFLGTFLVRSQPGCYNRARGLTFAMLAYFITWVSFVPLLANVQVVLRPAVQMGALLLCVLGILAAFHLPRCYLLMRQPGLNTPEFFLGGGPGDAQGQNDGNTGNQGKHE
In words: Calcium mobilisation assay, TAS1R2 variant R317P with TAS1R3-WT. The assay is classed as cell-based. The note with it: for Max ΔF/F0: maximal signal amplitude. An excerpt:
The coding sequences for TAS1R2 and TAS1R3 were commercially synthesised, and the human codon was optimised for expression in human cells. The coding sequences of human TAS1R2 and TAS1R3 were subcloned and inserted into the mammalian expression vectors pcDNA6/myc-HisA and pcDNA4/myc-HisA (Invitrogen; Thermo Fisher Scientific; Illkirch, France) between the EcoRI and NotI restriction sites, generating the plasmids pcDNA6-TAS1R2 and pcDNA4-TAS1R3, respectively. To increase protein expression in mammalian cells, an upstream start codon was used, which was a sequence called MAX, corresponding to the QBI SP163 element also described in pcDNA4-HisMax (Invitrogen; Thermo Fisher Scientific; Illkirch, France). To measure the expression level of the receptor by immunohistochemistry, we used the FLAG sequence ([…]) in the C-terminal position, which encodes the FLAG tag epitope. SNP variants of TAS1R2 and TAS1R3 were constructed based on […], respectively, using site-directed mutagenesis (Genewiz; Leipzig, Germany).
The HEK293T cells were kindly provided by Jay P. Slack (Givaudan Flavors Corporation; Cincinnati, OH, USA). HEK293T cells stably transfected with Gα16gust44 [43, 67] were seeded in poly-D-lysine-coated clear-bottom black 96-well plates (0.35 × 10^5 cells/well) in high-glucose DMEM supplemented with 2 mM GlutaMAX, 10% dialysed foetal bovine serum with penicillin/streptomycin and G418 (400 μg/mL) at 37 °C and 6.3% CO2 in a humidified atmosphere as previously reported. […] As a negative control, HEK293T cells were mock-transfected with the empty expression vector. After a further 24 h of incubation, the HEK293T cells were washed with C1 buffer (130 mM NaCl, 5 mM KCl, 10 mM HEPES pH 7.4 and 2 mM CaCl2). The 96-well plates containing the cells were then stimulated with sweet-tasting compounds. […] Different concentration ranges were tested depending on the sweet compound injected. The Ca^2+ changes were expressed as fractional changes in fluorescent light intensity: ΔF/F = (F − F0)/F0, where F was the fluorescent light intensity at each point, and F0 was the value of emitted fluorescent light prior to stimulus application. To calculate dose–response relationships, the changes in fluorescence upon stimulus application were averaged, mock-subtracted and baseline-corrected. The dose–response data obtained were adjusted using a 4-parameter logistic equation. The half-maximal effective concentrations (EC50 values) and maximal signal amplitudes were calculated using SigmaPlot software (version 15.0) (Systat Software; San Jose, CA, USA).
For in vitro calcium mobilisation assay performed on hTAS1R2-SNPs, hTAS1R3-SNPs and mTAS1R3-I60T, 6 to 7 concentrations were tested for each sweet compound, plus buffer alone. All concentration–receptor combinations were measured in duplicate, and each experiment was repeated at least 4 times (8 wells/concentration). Results were expressed for each concentration as ΔF/F mean ± SEM and represented as dose–response curves.

With `C=C(C)[C@@H]1CC=C(/C=N/O)CC1` [Perillartine, perillartine], the EC50 was found to be 35.2 ± 2.2 µM, the “R1 = Variant EC50/WT EC50” value turned out to be 2.0 and the “Max ΔF/F0” value is given as 1.16 ± 0.03.
Consider `O=S(=O)(O)NC1CCCCC1` [Cyclamate, cyclamate], for which the EC50 came out at 2860 ± 62 µM.
Regarding `C=C1C[C@@]23CC[C@H]4[C@@](C)(CCC[C@@]4(C)C(=O)O[C@@H]4O[C@H](CO)[C@@H](O)[C@H](O[C@@H]5O[C@H](CO)[C@@H](O)[C@H](O)[C@H]5O)[C@H]4O[C@@H]4O[C@H](CO)[C@@H](O)[C@H](O)[C@H]4O)[C@@H]2CC[C@]1(O[C@@H]1O[C@H](CO)[C@@H](O)[C@H](O[C@@H]2O[C@H](CO)[C@@H](O)[C@H](O)[C@H]2O)[C@H]1O[C@@H]1O[C@H](CO)[C@@H](O)[C@H](O)[C@H]1O)C3` [Rebaudioside M, rebaudioside M], the EC50 was 26.9 ± 0.5 µM, the “R1 = Variant EC50/WT EC50” value was found to be 1.6 and the “Max ΔF/F0” value amounted to 1.19 ± 0.01.
For `OC[C@H]1O[C@H](O[C@]2(CCl)O[C@H](CCl)[C@@H](O)[C@@H]2O)[C@H](O)[C@@H](O)[C@H]1Cl` [Sucralose] the same measures were 98 ± 19 µM, 1.1 and 0.76 ± 0.06.
For `CC1=CC(=O)NS(=O)(=O)O1` [Acesulfame K, acesulfame K] the same measures were 685 ± 41 µM, 1.0 and 0.42 ± 0.01.
As for “brazzein (QDKCKKVYENYPVSKCQLANQCNYDCKLDKHARSGECFYDEKRNLQCICDYCEY; ends and bridges not checked; cysteine pairing not given here; UniProt P56552 1-54, looked up) [sweet-tasting protein obtained by recombinant production using the yeast Pichia pastoris]”, the “R1 = Variant EC50/WT EC50” value is reported as 2.5 and the “Max ΔF/F0” value stood at 0.91 ± 0.02.
For thaumatin, the “R1 = Variant EC50/WT EC50” value is on record as 2.5 and the “Max ΔF/F0” value was found to be 0.42 ± 0.01.
For the molecule `COC(=O)[C@H](Cc1ccccc1)NC(=O)[C@H](CC(=O)O)NCCC(C)(C)C` [Neotame], the EC50 turned out to be 0.86 ± 0.16 µM, the “R1 = Variant EC50/WT EC50” value came to 1.0 and the “Max ΔF/F0” value was found to be 0.63 ± 0.04.
The corresponding values for `C[C@H](CC[C@@H](O[C@@H]1O[C@H](CO[C@@H]2O[C@H](CO)[C@@H](O)[C@H](O)[C@H]2O)[C@@H](O)[C@H](O)[C@H]1O[C@@H]1O[C@H](CO)[C@@H](O)[C@H](O)[C@H]1O)C(C)(C)O)[C@H]1CC[C@@]2(C)[C@@H]3CC=C4[C@@H](CC[C@H](O[C@@H]5O[C@H](CO[C@@H]6O[C@H](CO)[C@@H](O)[C@H](O)[C@H]6O)[C@@H](O)[C@H](O)[C@H]5O)C4(C)C)[C@]3(C)[C@H](O)C[C@]12C` [Mogroside V, mogroside V] are 27.9 ± 2.5 µM, 1.6 and 1.51 ± 0.05.
For `COc1ccc(CCC(=O)c2c(O)cc(O[C@@H]3O[C@H](CO)[C@@H](O)[C@H](O)[C@H]3O[C@@H]3O[C@@H](C)[C@H](O)[C@@H](O)[C@H]3O)cc2O)cc1O` [NHDC, neohesperidin dihydrochalcone], the EC50 came to 171 ± 26.2 µM, the “R1 = Variant EC50/WT EC50” value was 2.2 and the “Max ΔF/F0” value is reported as 0.58 ± 0.04.

B1: thaumatin (protein)
chain: ATFEIVNRCSYTVWAAASKGDAALDAGGRQLNSGESWTINVEPGTKGGKIWARTDCYFDDSGSGICKTGDCGGLLRCKRFGRPPTTLAEFSLNQYGKDYIDISNIKGFNVPMDFSPTTRGCRGVRCAADIVGQCPAKLKAPGGGCNDACTVFQTSEYCCTTGKCGPTEYSRFFKRLCPDAFSYVLDKPTTVTCPGSSNYRVTFCPTA
modifications: Eight disulfides
notes: sweet-tasting plant protein, E957
In the case of B1, the EC50 came out at 18.9 ± 0.7 µM.

As a reminder, the EC50 is the concentration at which the effect is half-maximal.
